This note sets out measurements from patent publication US11040027B2, “Protein kinase inhibitors for promoting liver regeneration or reducing or preventing hepatocyte death” (HEPAREGENIX GMBH, priority 2017, dated 2021).

Molecules are shown by their SMILES. Bounds are passed on as bounds.

The target of assay [1] is BRaf (Homo sapiens, UniProt P15056). The experiment in a line: KINOMEscan competition binding assay, selectivity BRaf versus MKK4. As to conditions: Test conc. 0.1 μM; ratio of percent of control; N/E* per footnote. The method, then: The assay was performed by combining three components: DNA-tagged kinase; immobilized ligand; and a test compound. The ability of the test compound to compete with the immobilized ligand was measured via quantitative PCR of the DNA tag. The technology is described in detail in Fabian, M. A. et al. A small molecule-kinase interaction map for clinical kinase inhibitors. Nat. […] Nat.
The test compounds were provided as 10 mM stock solutions. The test solutions at indicated final concentrations were prepared at DiscoverX.

For assay [2], the target named is T1, MKK4 (Homo sapiens, UniProt P45985).
T1 sequence (P45985 84-399): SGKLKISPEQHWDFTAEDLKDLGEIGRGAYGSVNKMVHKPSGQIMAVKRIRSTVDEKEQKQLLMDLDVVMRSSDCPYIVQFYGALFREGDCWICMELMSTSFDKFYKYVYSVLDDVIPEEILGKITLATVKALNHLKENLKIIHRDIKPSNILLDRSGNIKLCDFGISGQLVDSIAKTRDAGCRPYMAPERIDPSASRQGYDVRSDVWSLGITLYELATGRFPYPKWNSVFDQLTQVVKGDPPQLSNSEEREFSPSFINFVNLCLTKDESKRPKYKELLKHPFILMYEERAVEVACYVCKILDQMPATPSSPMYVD
In words: KINOMEscan competition binding assay, MKK4. Particulars: read-out: Potency MKK4 (derived from % of control values, PoC).
Experimental: (§1) For investigation of the affinity to MKK4, MKK7 and JNK1, the kinases were produced in HEK-293 cells and subsequently tagged with DNA for qPCR detection. […] The liganded beads were blocked with excess biotin and washed with blocking buffer (SEABLOCK™ (Pierce), 1% BSA, 0.05% TWEEN®20, 1 mM DTT) to remove unbound ligand and to reduce nonspecific binding. […] All reactions were performed in polystyrene 96-well plates in a final volume of 0.135 mL. […] The kinase concentration in the eluates was measured by qPCR.

The target in assay [3] is JNK1 (Homo sapiens, UniProt P45983). The experiment in a line: KINOMEscan competition binding assay, selectivity JNK1 versus MKK4. As to conditions: Test conc 10 μM; ratio of percent of control.
Assay [4] concerns the target T2, MKK7 (Homo sapiens, UniProt O14733).
T2 sequence (O14733 1-419): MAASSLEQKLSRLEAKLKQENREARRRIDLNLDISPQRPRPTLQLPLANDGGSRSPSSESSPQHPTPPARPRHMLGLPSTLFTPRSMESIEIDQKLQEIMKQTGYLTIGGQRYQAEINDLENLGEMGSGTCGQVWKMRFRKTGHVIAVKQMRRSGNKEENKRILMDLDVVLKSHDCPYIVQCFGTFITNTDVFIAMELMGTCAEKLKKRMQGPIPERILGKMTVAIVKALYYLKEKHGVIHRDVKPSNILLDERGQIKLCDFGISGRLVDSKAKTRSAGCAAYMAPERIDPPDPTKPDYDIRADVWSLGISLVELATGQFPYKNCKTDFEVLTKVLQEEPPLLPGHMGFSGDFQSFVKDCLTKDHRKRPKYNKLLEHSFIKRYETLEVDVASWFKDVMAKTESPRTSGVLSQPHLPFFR
The experiment in a line: KINOMEscan competition binding assay, selectivity MKK7 versus MKK4. As to conditions: Test conc. 0.1 μM; ratio of percent of control; N/E* per footnote.
Experimental: as §1

Sequence of BRaf (P15056 whole entry): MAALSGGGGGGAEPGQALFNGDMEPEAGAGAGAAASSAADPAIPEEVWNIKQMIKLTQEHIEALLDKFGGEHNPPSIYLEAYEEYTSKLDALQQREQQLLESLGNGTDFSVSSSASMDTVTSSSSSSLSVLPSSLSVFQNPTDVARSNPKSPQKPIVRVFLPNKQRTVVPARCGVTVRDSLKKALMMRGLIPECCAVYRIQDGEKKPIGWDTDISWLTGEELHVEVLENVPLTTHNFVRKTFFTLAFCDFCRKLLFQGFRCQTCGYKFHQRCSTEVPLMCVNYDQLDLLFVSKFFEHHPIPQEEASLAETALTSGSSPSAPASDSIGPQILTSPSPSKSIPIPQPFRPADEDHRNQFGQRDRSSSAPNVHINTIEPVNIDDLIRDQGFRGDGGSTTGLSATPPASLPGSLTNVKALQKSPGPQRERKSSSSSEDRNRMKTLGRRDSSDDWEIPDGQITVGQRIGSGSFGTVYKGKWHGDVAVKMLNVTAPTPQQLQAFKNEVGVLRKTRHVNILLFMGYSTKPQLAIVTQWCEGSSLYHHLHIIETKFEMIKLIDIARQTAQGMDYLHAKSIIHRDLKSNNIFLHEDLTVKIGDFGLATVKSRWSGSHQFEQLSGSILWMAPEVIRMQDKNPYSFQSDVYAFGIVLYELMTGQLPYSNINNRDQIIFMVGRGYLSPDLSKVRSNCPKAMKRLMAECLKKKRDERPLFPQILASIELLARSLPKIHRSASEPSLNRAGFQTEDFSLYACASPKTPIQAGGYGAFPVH
Sequence of JNK1 (P45983 1-384 isoform P45983-2): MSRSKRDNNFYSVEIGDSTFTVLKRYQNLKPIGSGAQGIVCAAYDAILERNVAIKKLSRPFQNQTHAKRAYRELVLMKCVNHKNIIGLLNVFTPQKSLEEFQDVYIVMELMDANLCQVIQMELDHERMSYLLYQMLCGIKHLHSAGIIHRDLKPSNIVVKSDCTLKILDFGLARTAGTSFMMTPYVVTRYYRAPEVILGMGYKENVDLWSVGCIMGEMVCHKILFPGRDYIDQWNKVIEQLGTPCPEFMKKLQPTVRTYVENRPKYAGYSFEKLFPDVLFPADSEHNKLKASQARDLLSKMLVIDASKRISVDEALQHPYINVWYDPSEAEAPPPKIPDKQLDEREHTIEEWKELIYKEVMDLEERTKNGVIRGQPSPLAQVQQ

Turning to `CCCS(=O)(=O)Nc1ccc(F)c(C(=O)c2c[nH]c3ncc(-c4ccc(OC)cc4)cc23)c1F` [Example 3, N-(2,4-Difluoro-3-(5-(4-methoxyphenyl)-1H-pyrrolo[2,3-b]pyridine-3-carbonyl)phenyl)propane-1-sulfonamide], in assay [1], the “Selectivity BRaf/MKK4” value is recorded as 1.0. In addition, the remaining binding at 0.1 µM in assay [2] was in the range of 10 to 30%. Further, the “Selectivity JNK1/MKK4” value in assay [3] is above 400. The “Selectivity MKK7/MKK4” value in assay [4] is reported as 10.
In the same order, the values of `CCCS(=O)(=O)Nc1ccc(F)c(C(=O)c2c[nH]c3ncc(-c4ccc(C#N)cc4)cc23)c1F` [Example 4, N-(3-(5-(4-Cyanophenyl)-1H-pyrrolo[2,3-b]pyridine-3-carbonyl)-2,4-difluorophenyl)propane-1-sulfonamide] are 2.8, 10 to 30%, above 400 and 25.
Regarding `CCCS(=O)(=O)Nc1ccc(F)c(C(=O)c2c[nH]c3ncc(-c4cnc5ccccc5c4)cc23)c1F` [Example 6, N-(2,4-Difluoro-3-(5-(quinolin-3-yl)-1H-pyrrolo[2,3-b]pyridin-3-carbonyl)phenyl)propane-1-sulfonamide], in assay [1], the “Selectivity BRaf/MKK4” value worked out at 0.1. In addition, in assay [2], the remaining binding at 0.1 µM was above 30%. The “Selectivity JNK1/MKK4” value in assay [3] is on record as above 100. The “Selectivity MKK7/MKK4” value in assay [4] came to 5.6.
For `CCCS(=O)(=O)Nc1ccc(F)c(C(=O)c2c[nH]c3ncc(-c4ccc(SC)cc4)cc23)c1F` [Example 8, N-(2,4-Difluoro-3-(5-(4-(methylthio)phenyl)-1H-pyrrolo[2,3-b]pyridine-3-carbonyl)phenyl)propane-1-sulfonamide], in that order: 0.5, above 30%, above 100 and 7.6.
For `CCCS(=O)(=O)Nc1ccc(F)c(C(=O)c2c[nH]c3ncc(-c4ccccc4O)cc23)c1F` [Example 9, N-(2,4-Difluoro-3-(5-(2-hydroxyphenyl)-1H-pyrrolo[2,3-b]pyridine-3-carbonyl)phenyl)propane-1-sulfonamide], in that order: 4.2, above 30%, above 10 and 6.7.
Take `CCCS(=O)(=O)Nc1ccc(F)c(C(=O)c2c[nH]c3ncc(-c4ccc(F)cc4)cc23)c1F` [Example 11, N-(2,4-Difluoro-3-(5-(4-fluorophenyl)-1H-pyrrolo[2,3-b]pyridine-3-carbonyl)phenyl)propane-1-sulfonamide]: the “Selectivity BRaf/MKK4” value in assay [1] is recorded as 6.3. The remaining binding at 0.1 µM in assay [2] lay within 10 to 30%. Also, the “Selectivity JNK1/MKK4” value in assay [3] was above 100. The “Selectivity MKK7/MKK4” value in assay [4] is given as 25.
On to `CCCS(=O)(=O)Nc1ccc(F)c(C(=O)c2c[nH]c3ncc(-c4cccc(C#N)c4)cc23)c1F` [Example 14, N-(3-(5-(3-Cyanophenyl)-1H-pyrrolo[2,3-b]pyridine-3-carbonyl)-2,4-difluorophenyl)propane-1-sulfonamide], for which the “Selectivity BRaf/MKK4” value in assay [1] was 1.5. Further, the remaining binding at 0.1 µM in assay [2] lay in the range of 10 to 30%. In assay [3], the “Selectivity JNK1/MKK4” value is recorded as 23. The “Selectivity MKK7/MKK4” value in assay [4] turned out to be 10.
In the case of `CCCS(=O)(=O)Nc1ccc(F)c(C(=O)c2c[nH]c3ncc(-c4ccc5c(c4)OCCO5)cc23)c1F` [Example 15, N-(3-(5-(2,3-Dihydrobenzo[b][1,4]dioxin-6-yl)-1H-pyrrolo[2,3-b]pyridine-3-carbonyl)-2,4-difluorophenyl)propane-1-sulfonamide], the “Selectivity BRaf/MKK4” value in assay [1] came out at 2.0. Moreover, the remaining binding at 0.1 µM in assay [2] is 10 to 30%. In assay [3], the “Selectivity JNK1/MKK4” value is recorded as above 100. Also, the “Selectivity MKK7/MKK4” value in assay [4] was determined as 30.
